Data reported in patent US9650363B2, “Integrin antagonist conjugates for targeted delivery to cells expressing LFA-1” (Hoffmann-La Roche Inc., priority 2012, dated 2017).

Target: sLFA-1/ICAM-1 (Homo sapiens, UniProt P05107+P20701, DEL701-769)
Test: sLFA-1/ICAM-1 ELISA (inhibition of 5dICAM-Fc binding to coated receptor)
Conditions: control compounds; ICAM-1 binding ELISA, sLFA-1 or Mac-1 coated plates
Method: • Small molecules equipped with a maleimide functionality were covalently conjugated to the RNA through a thioether linkage. To enable this chemistry, ˜60 mg of the RNA containing the 5′-disulfide linker was reduced in water (5 mL) to the corresponding thiol using 1 mL TCEP (0.5 M in water, obtained from Sigma Aldrich). Once analytical anion exchange HPLC indicated completion of the reaction (˜2 h at room temperature) the RNA was precipitated with 30 mL ethanol/3M NaOAc (pH 5.4) 32:1 (v/v) over night at −20° C. The pellet was collected by centrifugation and used for the subsequent small molecule conjugation. • In a typical conjugation reaction 10 mg RNA was dissolved in 2 mL sodium phosphate buffer (0.1 M, pH 7.0). To this solution the small molecule (0.12 mM) in ACN/NMP 1:1 (v/v) was added over a period of 5 minutes. […] The pellet was collected by centrifugation, dissolved in water and if necessary purified by anion exchange HPLC pursuing the procedure given above. If the conjugate is sufficiently pure the reaction mixture was filtered through a size exclusion column (Sephadex G-25, GE Healthcare). Annealing of Oligoribonucleotides to Generate siRNA • Complementary strands were annealed by combining equimolar RNA solutions. […] Absorbance was measured at 450 nm. […]

Chain of sLFA-1/ICAM-1 (P20701 26-1090 limits assumed, stated change not applied): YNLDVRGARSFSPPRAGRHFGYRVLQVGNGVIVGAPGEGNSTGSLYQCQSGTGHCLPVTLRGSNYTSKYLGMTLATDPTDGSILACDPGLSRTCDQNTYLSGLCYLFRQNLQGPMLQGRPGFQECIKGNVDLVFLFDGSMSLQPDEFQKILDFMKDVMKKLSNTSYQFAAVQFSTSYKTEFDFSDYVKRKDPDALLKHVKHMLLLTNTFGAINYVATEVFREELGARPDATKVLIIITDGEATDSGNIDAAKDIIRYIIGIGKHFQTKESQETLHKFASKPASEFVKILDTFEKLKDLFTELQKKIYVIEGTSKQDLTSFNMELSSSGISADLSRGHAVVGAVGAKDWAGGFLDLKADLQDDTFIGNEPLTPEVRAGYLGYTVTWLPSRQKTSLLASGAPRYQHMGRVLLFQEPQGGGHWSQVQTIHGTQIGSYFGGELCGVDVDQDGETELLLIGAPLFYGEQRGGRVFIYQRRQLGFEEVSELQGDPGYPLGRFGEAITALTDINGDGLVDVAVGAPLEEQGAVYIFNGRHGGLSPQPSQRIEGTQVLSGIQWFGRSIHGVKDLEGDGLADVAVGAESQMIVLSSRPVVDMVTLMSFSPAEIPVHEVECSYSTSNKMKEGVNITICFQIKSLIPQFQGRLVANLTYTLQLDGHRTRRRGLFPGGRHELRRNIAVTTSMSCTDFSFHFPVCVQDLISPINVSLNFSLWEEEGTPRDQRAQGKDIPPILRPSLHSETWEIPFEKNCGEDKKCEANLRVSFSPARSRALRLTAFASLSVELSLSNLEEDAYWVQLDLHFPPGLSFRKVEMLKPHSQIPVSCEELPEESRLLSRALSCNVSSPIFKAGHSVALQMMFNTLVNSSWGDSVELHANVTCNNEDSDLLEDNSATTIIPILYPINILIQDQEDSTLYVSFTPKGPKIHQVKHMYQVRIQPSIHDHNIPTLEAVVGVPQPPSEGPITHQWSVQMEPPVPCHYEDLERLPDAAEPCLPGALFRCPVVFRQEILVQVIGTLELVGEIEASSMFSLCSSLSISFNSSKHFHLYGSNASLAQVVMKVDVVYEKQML
Chain of sLFA-1/ICAM-1 (P05107 23-700 limits assumed, stated change not applied): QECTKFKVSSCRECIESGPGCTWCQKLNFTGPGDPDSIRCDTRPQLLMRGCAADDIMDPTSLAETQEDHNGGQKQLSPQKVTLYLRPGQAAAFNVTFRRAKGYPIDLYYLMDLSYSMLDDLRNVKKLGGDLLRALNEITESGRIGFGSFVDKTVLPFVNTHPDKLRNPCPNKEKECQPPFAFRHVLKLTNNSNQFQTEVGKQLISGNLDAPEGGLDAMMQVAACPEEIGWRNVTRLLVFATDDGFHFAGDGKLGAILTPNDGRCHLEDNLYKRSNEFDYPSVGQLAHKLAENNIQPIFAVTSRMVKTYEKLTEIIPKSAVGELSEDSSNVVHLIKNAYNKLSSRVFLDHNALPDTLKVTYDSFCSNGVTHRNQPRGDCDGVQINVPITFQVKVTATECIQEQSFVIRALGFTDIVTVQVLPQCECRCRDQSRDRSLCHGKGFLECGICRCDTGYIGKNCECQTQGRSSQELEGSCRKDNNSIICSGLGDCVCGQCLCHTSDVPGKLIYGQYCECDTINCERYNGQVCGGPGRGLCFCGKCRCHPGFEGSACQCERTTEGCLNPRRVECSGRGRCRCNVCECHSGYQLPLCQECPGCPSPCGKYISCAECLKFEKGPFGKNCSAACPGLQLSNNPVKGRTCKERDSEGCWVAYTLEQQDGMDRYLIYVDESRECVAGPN

IC50	Compound
~37 nM	Cc1cc(C(=O)NCc2cccc(O)c2)cc(C)c1C(=O)N[C@@H](CNC(=O)c1cccs1)C(=O)O [compound 142]
~11 nM	O=C(NCc1cccc(O)c1)c1cc(Cl)c(C(=O)N[C@@H](CNC(=O)c2cc(O)cc(O)c2)C(=O)O)c(Cl)c1 [compound 143]
